Measured values taken from ChEMBL document CHEMBL1146414, “New Agelasine Compound from the Marine Sponge Agelas mauritiana as an Antifouling Substance against Macroalgae” (J Nat Prod, 1997).
Active and inactive are the calls of the source. No cut-off for these calls is given here.

Columns and labels:
Ulva [1] = assay: Antifouling activity against Ulva conglobata spores assessed as germination and attachment rate at 2.5 to 10.0 ppm; type: functional, organism-based
Ulva [2] = assay: Toxicity against Ulva conglobata spores at 50 ppm; type: organism-based; conditions: in vivo
[3] = test system: Anagnostidinema amphibium; assay: Antimicroalgal activity against Oscillatoria amphibia at 1.0 to 2.5 ppm; type: functional, organism-based
Skeletonema costatum = assay: Antimicroalgal activity against Skeletonema costatum at 1.0 to 2.5 ppm; type: functional, organism-based
Prorocentrum micans = assay: Antimicroalgal activity against Prorocentrum micans at 1.0 to 2.5 ppm; type: functional, organism-based
Brachiomonas submarina = assay: Antimicroalgal activity against Brachiomonas submarina at 1.0 to 2.5 ppm; type: functional, organism-based
Staphylococcus aureus = assay: Antibacterial activity against Staphylococcus aureus; type: functional, organism-based
Salinivibrio costicola = assay: Antibacterial activity against sVibrio costicola; type: functional, organism-based
Escherichia coli = assay: Antibacterial activity against Escherichia coli; type: functional, organism-based
Bacillus subtilis = assay: Antibacterial activity against Bacillus subtilis; type: functional, organism-based

## C/C(=C\C[n+]1cn(C)c2ncnc(N)c21)CC[C@@]1(C)C2=CCCC(C)(C)[C@@H]2CC[C@@H]1C.[Cl-]
Ulva [1]
  Activity: Active
Ulva [2]
  Activity: Toxic
[3]
  Activity: Active
Skeletonema costatum
  Activity: Active
Prorocentrum micans
  Activity: Active
Brachiomonas submarina
  Activity: Active
Staphylococcus aureus
  Activity: inactive
Salinivibrio costicola
  Activity: inactive
Escherichia coli
  Activity: inactive
Bacillus subtilis
  Activity: inactive
